In paper PMC5735979, “Total Coumarins from Hydrangea paniculata Show Renal Protective Effects in Lipopolysaccharide-Induced Acute Kidney Injury via Anti-inflammatory and Antioxidant Activities” (Frontiers in Pharmacology, 2017):

Columns and labels:
[1] = Pharmacokinetics study after single oral dose of HP; type: in vivo, C57BL/6 mice; conditions: male, C57BL/6, mouse, in vivo, mice, n = 5
Procedure: All of the animals were fasted for 12 h before receiving HP and were then allowed to eat for 4 h after administration. The dosing solutions used for the animal studies were prepared by dissolving the required amounts of HP in distilled water. […] The plasma was separated and stored at 2–8°C until analysis. […] Louis, MO, USA) and then mixed with 180 μL of acetonitrile (Merck, Darmstadt, Germany) to precipitate protein. After centrifugation, aliquots (10 μL each) of the supernatant were used for analysis. […] The mobile phase consisted of solvent A [0.1% formic acid (Dikma Technologies, Inc., CA, USA) in water] and solvent B [0.1% formic acid in methanol (Merck)]. The analytes were eluted at a flow rate of 0.2 mL/min, with the following gradient elution: from 0 to 0.6 min, 20% B; linear increase to 95% B in 0.2 min; 95% B for 4 min, decrease to 20% B in 0.2 min; and stabilization at initial conditions for 6 min. The mass spectrometer was set for multiple reaction monitoring and was operated in a positive-ion mode with an electrospray ionization source. Nitrogen was used as the curtain gas and the collision gas. The ion-spray voltage was set at 5,500 V, and the gas temperature at 500°C.

[2] = tested on: streptozotocin-induced diabetic nephropathy; design: method as in Zhang et al., 2012; conditions: ref Zhang et al., 2012; cited from earlier work
[3] = tested on: cationized BSA-induced membranous glomerulitis; design: method as in Zhang et al., 2013; conditions: ref Zhang et al., 2013; cited from earlier work
[4] = plasma, single oral dose of 50 mg/kg HP

With `O=c1ccc2ccc(O[C@@H]3O[C@H](CO)[C@@H](O)[C@H](O)[C@H]3O)cc2o1` [Skimmin, skimmin] the concentration at 0.08 h ([1]; 0.08 h after single oral dose of 50 mg/kg HP, mean ± SD, read-out: Blood drug concentration) was 7.5 ± 2.94 µM, the concentration at 0.25 h ([1]; 0.25 h after single oral dose of 50 mg/kg HP, mean ± SD, read-out: Blood drug concentration) was 14.2 ± 3.71 µM and the concentration at 0.5 h ([1]; 0.5 h after single oral dose of 50 mg/kg HP, mean ± SD, read-out: Blood drug concentration) was 12.6 ± 2.12 µM. For the same compound, the concentration at 1 h ([1]; 1 h after single oral dose of 50 mg/kg HP, mean ± SD, read-out: Blood drug concentration) was 7.41 ± 1.53 µM, the concentration at 1.5 h ([1]; 1.5 h after single oral dose of 50 mg/kg HP, mean ± SD, read-out: Blood drug concentration) was 4.44 ± 0.89 µM and the concentration at 2 h ([1]; 2 h after single oral dose of 50 mg/kg HP, mean ± SD, read-out: Blood drug concentration) was 3.64 ± 0.94 µM. It also gave a concentration at 3 h ([1]; 3 h after single oral dose of 50 mg/kg HP, mean ± SD, read-out: Blood drug concentration) of 2.37 ± 3.51 µM, a concentration at 4 h ([1]; 4 h after single oral dose of 50 mg/kg HP, mean ± SD, read-out: Blood drug concentration) of 1.16 ± 1.11 µM and a concentration at 8 h ([1]; 8 h after single oral dose of 50 mg/kg HP, mean ± SD, read-out: Blood drug concentration) of 0.17 ± 0.22 µM. It also gave a concentration at 12 h ([1]; 12 h after single oral dose of 50 mg/kg HP, mean ± SD, read-out: Blood drug concentration) of 0.05 ± 0.02 µM, a half-life ([1]; elimination half-life, plasma, single oral dose of 50 mg/kg HP) of 1.55 h and an AUC(0-inf) [1, 4] of 23.4 µM·h. The AUC(0-t) [1, 4] was 23.3 µM·h, the Cmax [1, 4] was 14.2 µM and the Tmax [1, 4] was 0.25 h. For the same compound, the MRT last ([1]; plasma, single oral dose of 50 mg/kg HP, read-out: MRT(0−t)) was 1.75 h, the MRT inf ([1]; plasma, single oral dose of 50 mg/kg HP, read-out: MRT(0−∞)) was 1.81 h and the “progression of streptozotocin-induced diabetic nephropathy” value [2] was “could slow the progression”. The “progression of cationized BSA-induced membranous glomerulitis” value [3] was “could slow the progression”.
